Assay results reported in paper PMC5458211, “Mitochondrial VDAC1-based peptides: Attacking oncogenic properties in glioblastoma” (Oncotarget, 2017).
Non-standard residues stand in square brackets, D forms with d. Residues, ends and D or L forms follow the SMILES beside them.

Key:
[1] = test system: U-87MG cells; assay: Morphological analysis of apoptosis by electron microscopy; assay type: cell-based, human; details: 6 h, serum-free medium, Suppl Fig 2C
Protocol: Supplementary Figure 2: Mode of action of VDAC1-based peptides. […]
detachment. SH-SY5Y cells (4×10^4/ml) were grown on cover slips, transfected with plasmid pEGFP-HK-I and after 24 h, were incubated […]
The final DMSO concentration in control and peptide-treated cells was 0.07%. Fixed cells were stained with DAPI and visualized by confocal microscopy (Olympus 1X81). Arrows indicate cells […]
showing diffusion of HK-I-GFP. B-C. […] B. SH-SY5Y cells were treated with the indicated […]
Arrows and arrowheads indicate cells with membrane blebbing (early apoptotic state) and late apoptotic states, respectively. C. Morphological analysis of apoptosis by electron microscopy (EM). For transmission EM, U-87MG cells (1.6 x10^6 /ml) were incubated with the indicated concentrations of D-ΔN-Ter-Antp peptide or DMSO (0.3% final concentration) for 6 h in serum-free medium. Cells were pelleted and fixed in Karnovsky’s fixative (2% paraformaldehyde, 2.5% glutaraldehyde in 0.1 M cacodylate buffer, pH 7.4) for 10 minutes at room temperature and then in fresh fixative for 3.5 days in the cold. Following buffer rinses, the cells were incubated with 1% osmium tetroxide in 0.1 M cacodylate buffer, dehydrated in an ethanol series, incubated with epoxy propane and embedded in Araldite resin. […]

[2] = test system: U-87MG cells; assay: Cell death in U-87MG by free and PLGA-encapsulated peptide; assay type: cell-based, human; details: 12 h, PI staining and FACS; Fig 7B
Protocol: B. U-87MG cells (2×10^5) were incubated for 12 h with the indicated concentrations of DMSO, Retro-Tf-D-LP4 peptide (Pep), or Retro-Tf-D-LP4 encapsulated in PLGA nanoparticles (PLGA-Pep). Samples of Retro-Tf-D-LP4 encapsulated in PLGA nanoparticles were centrifuged (15000g, 5 min) to separate the supernatant (Sup), containing free peptide, and the pellet, containing encapsulated Retro-Tf-D-LP4 peptide. Cell death was analyzed by PI staining and FACS analysis. C. Graphical representation of the orthotopic animal experiment. […] E. Calculated tumor volumes after 20 (dark grey bars) and 29 (light grey bars) days post-treatment start. […]
100% DMSO and then diluted 20-fold with sterile DDW into three groups (6 animals/group) and treated every to reach a concentration of 25 mg/ml in a final DMSO third day with DMSO (1.44%), Retro-Tf-D-LP4 (10 concentration of 5%. PLGA (50 mg) was dissolved in mg/kg) or Retro-Tf-D-LP4 (10 mg/kg) encapsulated by acetone (1 ml). […] Tumor volume was analyzed using VivoQuant 2.10 10 ml of aqueous solution containing 1% PVA (w/v). […]
(Calbiochem, UK). […] Thirteen days post-inoculation, using various primary antibodies (sources and dilutions tumor volume was measured and calculated (100-130 as detailed in supplementary Table 2), followed by mm3) and mice were randomized into three groups (5 the appropriate HRP-conjugated secondary antibodies mice/group). […]

Row | SMILES | apoptotic morphological changes (electron microscopy) [1] | cell death, U-87MG [2]
1 | CC[C@@H](C)[C@@H](NC(=O)[C@@H](CCCCN)NC(=O)[C@H](NC(=O)[C@@H](CCC(N)=O)NC(=O)[C@@H](CCCNC(=N)N)NC(=O)[C@@H](CC(C)C)NC(=O)CNC(=O)[C@@H](Cc1ccccc1)NC(=O)CNC(=O)[C@@H](Cc1ccc(O)cc1)NC(=O)CNC(=O)[C@@H](CCCCN)NC(=O)[C@H](NC(=O)[C@@H](Cc1ccccc1)NC(=O)[C@H](NC(=O)[C@@H](CC(=O)O)NC(=O)[C@H](N)CCCNC(=N)N)C(C)C)[C@H](C)O)[C@H](C)CC)C(=O)N[C@H](Cc1c[nH]c2ccccc12)C(=O)N[C@H](Cc1ccccc1)C(=O)N[C@H](CCC(N)=O)C(=O)N[C@H](CC(N)=O)C(=O)N[C@H](CCCNC(=N)N)C(=O)N[C@H](CCCNC(=N)N)C(=O)N[C@H](CCSC)C(=O)N[C@H](CCCCN)C(=O)N[C@H](Cc1c[nH]c2ccccc12)C(=O)N[C@H](CCCCN)C(=O)N[C@H](CCCCN)C(=O)O [D-ΔN-Ter-Antp] (H-[dR][dD][dV][dF][dT][dK]G[dY]G[dF]G[dL][dR][dQ][dI][dK][dI][dW][dF][dQ][dN][dR][dR][dM][dK][dW][dK][dK]-OH; N-terminus and C-terminus assumed) | condensation of nuclei, DNA fragmentation, and possible apoptotic body formation | –
2 | CC[C@H](C)[C@H](NC(=O)[C@H](Cc1ccc(O)cc1)NC(=O)[C@@H]1CCCN1C(=O)[C@H](CCCNC(=N)N)NC(=O)[C@H](Cc1c[nH]cn1)NC(=O)[C@H](CO)NC(=O)[C@H](Cc1c[nH]c2ccccc12)NC(=O)[C@@H](NC(=O)[C@H](Cc1c[nH]c2ccccc12)NC(=O)[C@H](CCC(=O)O)NC(=O)[C@@H](CCCCN)NC(=O)[C@@H](CCCCN)NC(=O)[C@@H](CC(C)C)NC(=O)[C@@H](CCC(=O)O)NC(=O)[C@H](NC(=O)[C@@H](C)NC(=O)[C@H](NC(=O)[C@@H](CC(N)=O)NC(=O)[C@@H](CC(C)C)NC(=O)[C@@H](C)NC(=O)[C@@H](Cc1c[nH]c2ccccc12)NC(=O)[C@H](NC(=O)[C@@H](C)NC(=O)CNC(=O)[C@@H](CC(N)=O)NC(=O)[C@@H](CO)NC(=O)[C@@H](CC(N)=O)NC(=O)[C@H](CCCCN)NC(=O)[C@H](Cc1c[nH]c2ccccc12)NC(=O)[C@@H](NC(=O)[C@H](Cc1c[nH]c2ccccc12)NC(=O)[C@@H](N)CCCCN)[C@@H](C)O)[C@H](C)O)C(C)C)[C@H](C)O)[C@@H](C)O)C(=O)N[C@@H](C)C(=O)N[C@@H](Cc1c[nH]cn1)C(=O)O [Retro-Tf-D-LP4] | – | induces cell death
